From paper PMC13338763, “Harnessing albumin as a carrier for the delivery of anti-HIV drugs to the lymphatic system” (Acta biomaterialia, 2025)
In brackets after ≈: the same amount, converted by molar mass.

Columns and labels:
Aqueous solubility = type: physicochemical; conditions: water
[1] = Release of DTG from hEB-DTG (storage stability and in vitro release kinetics, HPLC-MS); type: physicochemical; conditions: for DTG released (cumulative): PBS
BSA = BSA (Bos taurus, UniProt P02769); test: Gel retardation study with BSA; type: binding, bovine; conditions: in words
Experimental: Twenty (20) μg EB, hEB, hEB-platin, or hEB-DTG were mixed with or without various amounts of BSA, globulin, fibrinogen or FBS in 200 μL saline water, then 40 μL of the mixed solution were loaded to 1.5 % agarose gel and run under 120 V for 30 min.

[2] = Distribution in LN tissue and cells in LNs after i.v. injection (fluorescence microscopy, flow cytometry); type: in vivo; conditions: in words
Experimental: Five (5) μM/kg EB, hEB or hEB-DTG were i.v. injected into mice pretreated intraperitoneally with or without 2.5 mg/kg LPS for 24 h. After 24 h, LNs from different sites were collected and their signals of EB were checked under fluorescent microscopy. To evaluate the EB signals in various types of cells, LNs were disrupted mechanically using scissors, digested with a mixture of deoxyribonuclease I (0.3 mg/mL, Sigma-Aldrich) and TL Liberase (0.25 mg/mL, Roche, IN, USA) in serum-free RPMI-1640 at 37 °C for 30 min, and dispersed through a 40 μm cell strainer (BD Biosciences, CA, USA). After red blood cell lysis, live/dead cell discrimination was performed using a Zombie NIR Fixable Viability Kit (BioLegend, CA, USA, dilution: 1/1000) at 4 °C for 30 min in DPBS. Surface staining was performed at 4 °C for 30 min in FACS staining buffer (1 × phosphate-buffered saline/5 % FBS/0.5 % sodium azide) containing designated antibody cocktails (PerCP anti-mouse CD45 antibody, Brilliant Violet 785 anti-mouse CD4 antibody, FITC anti-mouse CD8 antibody, APC anti-mouse CD11b antibody, APC/Cyanine7 anti-mouse F4/80 antibody, Pacific Blue anti-mouse CD19 antibody and AF647 anti-mouse CD27 antibody; dilution: 1/200 for all antibodies). Flow cytometry was performed with LSRII (BD Biosciences) and Aurora (Cytek Biosciences, CA, USA) instruments and analyzed by FlowJo (BD Biosciences). The EB signals in each type of cell were quantified as mentioned above.

TZM-bl cells = test: Cell viability assay (CellTiter-Glo 2.0); type: cell-based; conditions: 48 h
Experimental: DTG and hEB-DTG prodrug cytotoxicity was measured at different concentrations against TZM-bl reporter cell line in the presence or absence of HIV-WT virus using the CellTiter-Glo™ 2.0 Assay (Promega, WI, USA) according to the manufacturer’s protocol. TZM-bl cells were seeded in the 96-well white plate at a density of 1 × 10^4 cells/well, and after 24 h, the cells were infected with HIV-WT virus and treated with DTG and hEB-DTG in a concentration range (diluted 1:100) from 3 × 10^−1 mg/mL to 3 × 10^−15 mg/mL. After 48 h, cells were subjected to CellTiter-Glo™ 2.0 Assay (Promega). The CellTiter-Glo™ 2.0 Reagent was equilibrated to room temperature and gently mixed. 100 μL of CellTiter-Glo™ 2.0 Reagent was added to each well containing 100 μL of cells in the medium. Contents were shaken in an orbital shaker for 2 min and incubated at room temperature for precisely 10 min, and then luminescence was measured with a Varioskan LUX Multimode Microplate Reader. Untreated/infected cells were used as a baseline control. Viability of cells was presented as a percentage of OD values of the control cells. For each assay run, data points were collected in triplicate.

HUVEC monolayer = test: Transwell study: transport across a HUVEC monolayer, flow cytometry of HEK293T cells in lower chamber; type: cell-based; conditions: albumin-bound, 8 h, in words
Experimental: HEK293T were seeded to 6-well plates as lower chamber and HUVEC were seeded to Corning (NY, USA) 6-well plate inserts (0.4 μm pore size) in another plate as upper chamber, respectively. After incubation and the cell layer on the upper chamber became intact, the culture medium in the inserts was replaced by fresh medium containing 0, 5 or 20 μg/mL filipin and 0 or 10 μg/mL LPS for overnight incubation. Next, the culture medium in the inserts was replaced with fresh medium containing 10 μM EB, hEB or hEB-DTG and 2 mg/mL BSA, then the inserts were moved to the wells cultured with HEK293T cells for incubation of 8 h at 37 °C. After that, HEK293T cells in the lower chambers were washed with cold PBS.
EB signals in HEK293T cells were quantified by flow cytometry. Fluorescence was examined at an excitation wavelength of 532 nm and an emission wavelength of 660 nm. 10 × 10^4 events were collected for each sample.

HEK293T cells = test: Cellular uptake study in vitro (flow cytometry); type: cell-based; conditions: in words
Experimental: HEK293T or HUVEC cells were seeded to 6-well plates. After overnight incubation, the culture medium was replaced by fresh medium containing 10 μM EB and 2, 5, or 20 mg/mL BSA for incubation of 0.5, 1 or 3 h at 37 °C. Later, cells were washed with cold PBS and fixed with PBS containing 4 % (w/v) formaldehyde.
Cellular uptake of different treatments was quantified by flow cytometry. Fluorescence was examined at an excitation wavelength of 532 nm and an emission wavelength of 660 nm. 10 × 10^4 events were collected for each sample.

HIV-WT virus = test: Drug susceptibility assay (luciferase reporter in TZM-bl cells); type: cell-based, human immunodeficiency virus; conditions: TZM-bl cells infected with HIV-WT, 48 h
Experimental: DTG and hEB-DTG luciferase expression levels were measured at different concentrations against TZM-bl reporter cell line in the presence of HIV-WT virus using the Britelite Plus Ultra-High Sensitivity Luminescence Reporter Gene Assay System (Revvity, MA, USA) according to the manufacturer’s protocol. TZM-bl cells were seeded in clear bottom white 96-well plate in a total volume of 200 μl DMEM-10 complete (+ 10 % FBS + 1 % penicillin/streptomycin) at a density of 1 × 10^4 cells/well. After 24 h, the cells were infected with the HIV-WT virus and treated with DTG and hEB-DTG in a concentration range (serial diluted 1:100) from 3 × 10^−1 mg/mL to 3 × 10^−15 mg/mL in PRF-10 complete media (+10 % FBS + 1 % penicillin/streptomycin). After 48 h of incubation, the cells were subjected to Britelite Plus Ultra-High Sensitivity Luminescence Reporter Gene Assay System (Revvity). The Britelite plus Lyophilized Substrate was reconstituted with the given Britelite Plus Reconstitution Buffer. After gently inverting and settling the solution for 5 min, 100 μL of the reconstituted Britelite Substrate solution was added to each well containing 100 μL of cells in the medium. Luminescence was measured with a Varioskan LUX Multimode Microplate Reader precisely after 2 min. Untreated/infected cells were used as baseline control. The inhibitory concentrations of each drug were presented as a percentage of OD value of the control cells. For each assay run, data points were collected in triplicate.

[3] = PK study: DTG in serum by HPLC-MS; type: in vivo, mice
Experimental: Five (5) mg/kg DTG, or hEB-DTG containing equivalent amount of DTG were i.v. injected into mice. After 1, 4, 12, 24 or 48 h, serum and LNs were collected. Samples were homogenized and vortex in 1 mL mixture of water and methanol (1/1, v/v), and then another 1 mL mixture of methanol and acetonitrile (1/1, v/v) was added for extraction. After centrifugation at 12,500 g for 10 min, the supernatants were collected for measurement under HPLC-MS with a previously reported method. For hydrolysis of the ester bond in hEB-DTG to release free DTG, the biological samples suspension mentioned above were incubated in 300 mg/mL guanidine hydrochloride solution at 80 °C for 24 h before extraction.

BSA, sequence (P02769 25-607): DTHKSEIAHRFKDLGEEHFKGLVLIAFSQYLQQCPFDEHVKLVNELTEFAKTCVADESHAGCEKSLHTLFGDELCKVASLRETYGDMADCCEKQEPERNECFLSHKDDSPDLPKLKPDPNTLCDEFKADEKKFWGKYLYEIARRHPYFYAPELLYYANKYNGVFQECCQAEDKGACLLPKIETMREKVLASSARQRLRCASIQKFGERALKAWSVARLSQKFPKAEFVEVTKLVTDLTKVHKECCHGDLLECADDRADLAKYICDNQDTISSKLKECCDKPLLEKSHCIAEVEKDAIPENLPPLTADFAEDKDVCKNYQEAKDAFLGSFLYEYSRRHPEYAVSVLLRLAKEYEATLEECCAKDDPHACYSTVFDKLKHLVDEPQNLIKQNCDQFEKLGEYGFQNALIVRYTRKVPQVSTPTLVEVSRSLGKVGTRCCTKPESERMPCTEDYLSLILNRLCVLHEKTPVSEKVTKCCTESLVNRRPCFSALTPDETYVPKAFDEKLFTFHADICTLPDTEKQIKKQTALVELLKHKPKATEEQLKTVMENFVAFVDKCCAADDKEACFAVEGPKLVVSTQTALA

| Compound | solubility (Aqueous solubility) [µg/mL] | DTG released (cumulative) ([1]; 37 °C, over 96 h) | DTG released (cumulative) ([1]; 37 °C, within 24 h) | DTG release in serum compared with PBS ([1]; 37 °C, serum) | DTG released ([1]; over 30 days at room temperature, storage conditions) [%] | binding affinity for BSA (BSA) | fluorescence signal in LNs ([2]; 24 h post i.v. injection) | uptake by immune cell populations in LNs ([2]; flow cytometry) | concentrations above which cell viability began to decline (TZM-bl cells) | concentrations with minimal cytotoxicity (TZM-bl cells) | transport across endothelial cell monolayer (HUVEC monolayer) | cellular uptake (HEK293T cells) | antiviral potency relative to free DTG (HIV-WT virus) | concentrations that potently inhibited HIV-WT replication (HIV-WT virus) [ng/mL] | released DTG concentration in blood vs free DTG group ([3]; 1 h post-injection) | clearance ([3]; mouse, serum, iv, single i.v. injection of free DTG 5 mg/kg, one-compartment model, read-out: CL, free DTG in serum (converted)) [mL/min] | half-life ([3]; mouse, serum, iv, single i.v. injection of free DTG 5 mg/kg, one-compartment model, read-out: t1/2, free DTG in serum (converted)) [h] |
| --- | --- | --- | --- | --- | --- | --- | --- | --- | --- | --- | --- | --- | --- | --- | --- | --- | --- |
| Cc1cc(-c2ccc(NCC(=O)Oc3c4n(cc(C(=O)NCc5ccc(F)cc5F)c3=O)C[C@@H]3OCC[C@@H](C)N3C4=O)c(C)c2)ccc1/N=N/c1ccc2c(S(=O)(=O)O)cc(S(=O)(=O)O)c(N)c2c1O [hEB-DTG] | 9640 (≈ 9.62 mM) | ~ 60% | ~ 30% | slower | 0.83 | maintained strong binding ability | comparable to that of hEB alone | significant EB signals were detected in all cell types analyzed | exceeded 1 μg/mL | below 100 ng/mL | successfully transported | efficiently internalized | slightly less potent | ≥ 10 | slightly higher |  |  |
| C[C@@H]1CCO[C@H]2Cn3cc(C(=O)NCc4ccc(F)cc4F)c(=O)c(O)c3C(=O)N12 [DTG, dolutegravir] | 40 (≈ 0.0954 mM) |  |  |  |  |  |  |  | exceeded 1 μg/mL | below 100 ng/mL |  |  |  | ≥ 10 |  | 0.00411 | 3.61 |
| Cc1cc(-c2ccc(/N=N/c3ccc4c(S(=O)(=O)O)cc(S(=O)(=O)O)c(N)c4c3O)c(C)c2)ccc1N [hEB, half-truncated Evans Blue] |  |  |  |  |  | retained strong binding affinity |  |  |  |  |  |  |  |  |  |  |  |
